The results in this text go back to article PMC5063977 (The Journal of Biological Chemistry, 2016).

Test [1] concerns the target T1, RAMP3-CLR (AM2 receptor) (Homo sapiens, UniProt O60896+Q16602).
T1 construct: FLAG; expressed in transfected cells; host or cells: HEK-293 or HEK-293S cells, transient transfection, 1:1 RAMP:CLR
Briefly: S. cerevisiae growth assay, GPA1/Gαs chimera, RAMP3 + CLR. It is filed as cell-based. Conditions: percentage of yeast strain MMY11 (lacking GPA1); 20 h; mean ± S.E., n = 8. Here is the method: FIGURE 1. […] Reporter gene activity was determined following 20 h of stimulation with each ligand. Data are expressed as a percentage of the maximum response observed in yeast strain MMY11 (lacking GPA1) and are means ± S.E. of n individual data sets. […] Data were determined as statistically different from the cognate ligand for each receptor (*, p < 0.05; **, p < 0.01; ***, p < 0.001) using a one-way ANOVA with Bonferroni's post-test.
General yeast procedures were performed as described previously ([22], [24]). The human CLR was introduced into yeast cells under the control of the PGK promoter using a plasmid containing ura3 (pDT-PGK). […] Receptor signaling was measured using the yeast growth assay as described previously ([24]). […] A fluorescein signal was detected as an increase in fluorescence (excitation wavelength = 485 nm, emission wavelength = 535 nm) as a measure of growth. Different concentrations of ligand (0.01 nM–100 μM) were assayed using 96-well plates, and fluorescence was detected using a Tecan Infinite M200 microplate reader (Tecan Ultra Evolution, Reading, UK) or a Mithras LB 940 microplate reader (Berthold Technologies, Harpenden, UK) for 20 h.
Data analysis for cAMP assays was performed in GraphPad Prism 6.0f (San Diego, CA). […] To quantitate the ligand-dependent response in the yeast system, a strain lacking GPA1 (MMY11), grown in rich medium, was used as a standard ([72]). […]

For test [2], the target named is T1, RAMP3-CLR (AM2 receptor). Briefly: cAMP accumulation, HEK-293 cells, RAMP3 + CLR. The format is cell-based. Conditions: mean ± S.E. Here is the method: HEK-293 cells were transfected with FuGENE 6 (Roche Applied Science) in accordance with the manufacturer's instructions using a 1:3 (w:v) DNA:FuGENE ratio and a 1:1 ratio of RAMP to CLR. […] The transfected cell lines were grown for 24–48 h prior to assaying.
The transfected HEK-293 cells were washed in PBS, resuspended in stimulation buffer (PBS containing 0.1% BSA and 0.5 mM IBMX), and seeded at 2000 cells/well in 384-well white Optiplates. Ligands were added in the range of 1 pM to 1 mM, and cAMP accumulation was measured after 30 min of stimulation using a LANCE® cAMP detection kit (PerkinElmer Life Sciences). […] Plates were read using a Mithras LB 940 multimode microplate reader (Berthold Technologies). […] Values were converted to concentration using a cAMP standard curve performed in parallel.
Data analysis for cAMP assays was performed in GraphPad Prism 6.0f (San Diego, CA). Data were fitted to obtain concentration-response curves using either the three-parameter logistic equation (for pEC50 values) or the operational model for partial agonism ([34]) to obtain values of efficacy (log τ) and the equilibrium dissociation constant (log Ka). These values were then used to quantify signaling bias as change in log (τ/Ka) relative to the natural cognate ligand for the respective receptor ([41]). […] Statistical differences were analyzed using one-way ANOVA or Student's t test as appropriate with post hoc Bonferroni's or Dunnett's multiple comparisons, and p < 0.05 was considered significant. […] For RT-PCR, normalization to the internal standard GAPDH was performed to reduce variance and enable a comparison between different cell lines. To quantitate the ligand-dependent response in the yeast system, a strain lacking GPA1 (MMY11), grown in rich medium, was used as a standard ([72]). As GPA1 is not present in this strain, the Gβγ subunits are unregulated and free to signal, allowing us to determine the maximal response of our system. […] For the mammalian cell-based assays, data analysis was carried out as for the yeast curves. […]

Molecules are shown by their SMILES.

T1 sequence (Q16602 23-461): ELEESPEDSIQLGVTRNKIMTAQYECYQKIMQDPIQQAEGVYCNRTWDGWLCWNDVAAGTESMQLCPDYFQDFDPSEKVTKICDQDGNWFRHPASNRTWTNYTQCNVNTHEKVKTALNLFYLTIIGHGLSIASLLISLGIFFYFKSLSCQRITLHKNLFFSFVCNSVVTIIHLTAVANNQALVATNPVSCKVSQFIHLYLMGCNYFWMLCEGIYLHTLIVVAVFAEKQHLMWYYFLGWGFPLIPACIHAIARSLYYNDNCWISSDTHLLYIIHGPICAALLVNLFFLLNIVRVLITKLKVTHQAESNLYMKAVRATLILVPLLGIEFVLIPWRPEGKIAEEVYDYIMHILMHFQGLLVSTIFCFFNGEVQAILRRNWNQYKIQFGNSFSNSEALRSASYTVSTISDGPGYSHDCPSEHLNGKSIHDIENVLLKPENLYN
T1 sequence (O60896 24-148): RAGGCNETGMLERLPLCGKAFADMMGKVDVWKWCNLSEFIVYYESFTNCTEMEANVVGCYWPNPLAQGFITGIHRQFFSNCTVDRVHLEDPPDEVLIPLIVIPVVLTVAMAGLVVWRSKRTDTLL

For the molecule `CC[C@H](C)[C@H](NC(=O)[C@H](CCC(N)=O)NC(=O)[C@H](Cc1c[nH]cn1)NC(=O)[C@H](C)NC(=O)[C@H](CC(C)C)NC(=O)[C@H](CCCCN)NC(=O)[C@H](CCC(N)=O)NC(=O)[C@@H](NC(=O)[C@@H](NC(=O)[C@@H]1CSSC[C@H](NC(=O)CNC(=O)[C@H](Cc2ccccc2)NC(=O)[C@H](CO)NC(=O)[C@H](CCCNC(=N)N)NC(=O)[C@H](CC(C)C)NC(=O)CNC(=O)[C@H](CCC(N)=O)NC(=O)[C@H](Cc2ccccc2)NC(=O)[C@H](CC(N)=O)NC(=O)[C@H](CC(N)=O)NC(=O)[C@H](CCSC)NC(=O)[C@H](CO)NC(=O)[C@H](CCC(N)=O)NC(=O)[C@H](CCCNC(=N)N)NC(=O)[C@@H](N)Cc2ccc(O)cc2)C(=O)N[C@@H](CCCNC(=N)N)C(=O)N[C@@H](Cc2ccccc2)C(=O)NCC(=O)N[C@@H]([C@@H](C)O)C(=O)N1)[C@@H](C)O)C(C)C)C(=O)N[C@@H](Cc1ccc(O)cc1)C(=O)N[C@@H](CCC(N)=O)C(=O)N[C@@H](Cc1ccccc1)C(=O)N[C@H](C(=O)N[C@@H](CC(=O)O)C(=O)N[C@@H](CCCCN)C(=O)N[C@@H](CC(=O)O)C(=O)N[C@@H](CCCCN)C(=O)N[C@@H](CC(=O)O)C(=O)N[C@@H](CC(N)=O)C(=O)N[C@H](C(=O)N[C@@H](C)C(=O)N1CCC[C@H]1C(=O)N[C@@H](CCCNC(=N)N)C(=O)N[C@@H](CO)C(=O)N[C@@H](CCCCN)C(=O)N[C@H](C(=O)N[C@@H](CO)C(=O)N1CCC[C@H]1C(=O)N[C@@H](CCC(N)=O)C(=O)NCC(=O)N[C@@H](Cc1ccc(O)cc1)C(N)=O)[C@@H](C)CC)C(C)C)[C@@H](C)O` [AM, adrenomedullin], the Emax came out at 25.5 ± 3.6% on RAMP3-CLR (AM2 receptor) [1]; 36 ± 2.2% at RAMP3-CLR (AM2 receptor) [2] (HEK293, PTX treated (200 ng/ml, 16 h), percentage of maximal cAMP with 100 μM forskolin in presence of PTX, n = 7 (Table 3)); 32.1 ± 1.6% at RAMP3-CLR (AM2 receptor) [2] (HEK293, percentage of maximal cAMP with 100 μM forskolin, HEK-293, 30 min, n = 9 (Table 2)); 32 ± 1.5% on RAMP3-CLR (AM2 receptor) [2] (HEK293, untreated, percentage of maximal cAMP with 100 μM forskolin in presence of PTX, n = 8 (Table 3)).
